# Columns and labels:
# [1] = test system: IMR32 (reduced PSMD5) and Kelly neuroblastoma cells; assay: Viability of IMR32 versus Kelly neuroblastoma cells (CellTiter-Glo); format: cell-based, human; conditions: other experiments, e.g., 0.1 uM
# HepG2 cells = assay: Cell viability assay (resazurin), HepG2 cells with shRNA knockdown of proteasome subunits vs control; format: cell-based, human
# Excerpt: FIGS. 2A-2F: Reducing expression of 19S subunits increases the levels of active 20S proteasomes and protects cancer cells from proteasome (FIG. 2A) HepG2 cells were infected with 80 shRNAs targeting 20 different subunits of the proteasome and 10 control shRNAs. Infected cells were then exposed to […] bortezomib and cell number was examined 4 days later. The plot represents the average (+/−SEM) of four different hairpins targeting the indicated proteasome subunits and their relative cell number following bortezomib treatment. 19S subunits are depicted with orange bars, the control with a blue bar and 20S subunits with green bars. […] (FIG. 2C) The relative cell number of cells harboring a control shLacZ or each of 4 individual shRNAs targeting shPSMD2 was analyzed 4 days after addition of the indicated concentrations of bortezomib. (FIG. 2D) HepG2 cells stably expressing four different shRNAs targeting the PSMD2 subunit and a control shRNA (lacZ) were analyzed by western blot for the indicated proteins 24 hours with or without bortezomib treatment. […] Proteasome complex levels were detected by immunoblot analysis and 20S proteasome activity by measuring the hydrolysis of Suc-LLVY-AMC by substrate overlay assays. * p<0.05 **p<0.01. […]
# T47D cells = assay: Cell viability, T47D cells with doxycycline-inducible PSMD2 shRNA (KD) vs control; format: cell-based, human
# FDX1 [2] = target: T1, FDX1 (Homo sapiens, UniProt P10109); assay: Electron transfer assay, reduced FDX1 to SDA complex; format: biochemical; conditions: upon addition of cysteine
# T1 construct: made in house
# T1 sequence (P10109 62-184): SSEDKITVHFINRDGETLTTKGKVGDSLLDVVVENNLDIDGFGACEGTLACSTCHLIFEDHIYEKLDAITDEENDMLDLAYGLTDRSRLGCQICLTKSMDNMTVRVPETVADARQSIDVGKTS
# Excerpt: Fe—S clusters are generated from sulfur extracted from cysteine by the iron sulfur-cluster (ISC) core complex (NFS1-ISD11-Acp-ISCU)2 and iron. A reductant (FDX1 or FDX2) is required for Fc-S cluster biosynthesis (Lill and Muhlenhoff, 2006; Py and Barras, 2010) (FIG. 53A). To investigate the effect of elesclomol on mitochondrial Fe—S cluster biosynthesis, we utilized in vitro Fe—S cluster assembly assays. […] As further confirmation, we examined the effect of elesclomol on electron transfer from reduced FDX1 to the ISC core complex upon the addition of cysteine.
# Electron transfer assay—Electron transfer from re-FDX1 SDA complex was monitored as follows. 25 μM reduced FDX1 was mixed with 25 μM SDA, and 125 μM L-cysteine was added to initiate the reaction. To test the effect of the drug, samples contained 25-500 μM elesclomol (1-20× relative to FDX1). Samples were then transferred to 1 cm path-length quartz cuvettes, sealed with rubber septa, and UV/vis spectra were collected at 25° C. The growth of absorbance at 456 nm was used to monitor the oxidation of reduced FDX1 as a result of electron transfer to SDA.
# FDX1 [3] = target: T1, FDX1; assay: Electron transfer from reduced FDX1 to the cysteine desulfurase complex; format: biochemical; conditions: upon addition of cysteine
structure (smiles),measurement,setting,value
"CC1(C)CCC(c2ccc(Cl)cc2)=C(CN2CCN(c3ccc(C(=O)NS(=O)(=O)c4ccc(N[C@H](CCN5CCOCC5)CSc5ccccc5)c(S(=O)(=O)C(F)(F)F)c4)cc3)CC2)C1 [ABT-263, navitoclax]",toxicity at lower concentrations than 1 uM,[1],a similar level of toxicity was observed
CC(C)C[C@H](NC(=O)[C@H](Cc1ccccc1)NC(=O)c1cnccn1)B(O)O [bortezomib],proliferation of control cells,"HepG2 cells; 12 nM, control HepG2 cells",completely inhibited
same,increase of EC50 values in cell lines with shRNA-reduced PSMD2 vs parental line,"HepG2 cells; HepG2, four shRNAs targeting PSMD2, 4 days",three to six-fold
same,resistance of cells harboring PSMD2 shRNA vs parental line (EC50),"T47D cells; T47D, transient PSMD2 reduction",EC50 values increased considerably
same,resistance after transient reduction of PSMD2,T47D cells; doxycycline-regulated PSMD2 shRNA,significantly increased resistance
CN(NC(=O)CC(=O)NN(C)C(=S)c1ccccc1)C(=S)c1ccccc1 [elesclomol],inhibition of electron transfer from reduced FDX1 to the NFS1 component of the ISC core complex,FDX1 [2],progressive inhibition of electron transfer
same,electron transfer from reduced FDX1 to the cysteine desulfurase complex,FDX1 [3],inhibits electron transfer

# From US20180353445A1, “METHODS AND COMPOSITIONS RELATING TO PROTEASOME INHIBITOR RESISTANCE” (Whitehead Institute for Biomedical Research, priority 2017, published 2018)
